From ChEMBL document CHEMBL1134178, “Cytotoxic Michael-type amine adducts of alpha-methylene lactones alantolactone and isoalantolactone” (Bioorg Med Chem Lett, 2001)

Assays:
K562 [1] = experiment: In vitro inhibitory activity against K562 human leukemia cell line; type: functional, cell-based
A549 = experiment: Inhibitory activity against A549 lung cancer cell line; type: functional; settings: Homo sapiens, read-out: ID50 (the source's name)
COLO = experiment: Inhibitory activity against COLO skin melanoma cell line; type: functional; settings: Homo sapiens, read-out: ID50 (the source's name)
[2] = Inhibitory activity against FF1 normal skin cells; type: functional; settings: Homo sapiens, read-out: ID50 (the source's name)
NCI-H520 = experiment: Inhibitory activity against H520 lung cancer cell line; type: functional; settings: Homo sapiens, read-out: ID50 (the source's name)
NCI-H460 = experiment: Inhibitory activity against H460 lung cancer cell line; type: functional; settings: Homo sapiens, read-out: ID50 (the source's name)
K562 [3] = experiment: Inhibitory activity against K562 human leukemia cell line; type: functional; settings: read-out: ID50 (the source's name)
K562 [4] = experiment: Effect on cell cycle distribution of K562 cells following treatment of 10 x IC50 for 16 hours and percentage of apoptotic cells (cells with DNA content less than cells in G1 phase) was reported.; type: functional, Homo sapiens
K562 [5] = experiment: Effect on cell cycle distribution of K562 cells following treatment of 10 x IC50 for 16 hours and percentage of cells in G2/M phase was reported.; type: functional, Homo sapiens
K562 [6] = experiment: Effect on cell cycle distribution of K562 cells following treatment of 10 x IC50 for 16 hours and percentage of cells in S phase was reported.; type: functional, Homo sapiens
K562 [7] = experiment: Effect on cell cycle distribution of K562 cells following treatment of 10 x IC50 for 16 hours and c.v. value was reported.; type: functional, Homo sapiens
MCF7 = experiment: Inhibitory activity against MCF-7 breast cancer cell line; type: functional; settings: Homo sapiens, read-out: ID50 (the source's name)
P388 = experiment: Inhibitory activity against P388 mouse leukemia cell line; type: functional; settings: read-out: ID50 (the source's name)
WiDr = experiment: Inhibitory activity against WiDR colon adenocarcinoma cell line; type: functional; settings: Homo sapiens, read-out: ID50 (the source's name)
BT-20 = experiment: Inhibitory activity against BT20 breast cancer cell line; type: functional; settings: Homo sapiens, read-out: ID50 (the source's name)
K562 [8] = experiment: Evaluated for the effect on cell cycle distribution of K562 cells following treatment of 10 x IC50 for 16 hours and percentage of cells in G1 phase was reported.; type: functional, Homo sapiens

## C=C1CCC[C@]2(C)C[C@H]3OC(=O)[C@@H](CN(C)CCO)[C@H]3C[C@@H]12
K562 [1]
  IC50: 4000 nM

## C=C1CCC[C@]2(C)C[C@H]3OC(=O)[C@@H](CN4CCCCC4)[C@H]3C[C@@H]12
K562 [1]
  IC50: 5000 nM

## C=C1CCC[C@]2(C)C[C@H]3OC(=O)[C@@H](CN4CCCC4)[C@H]3C[C@@H]12
K562 [1]
  IC50: 5000 nM

## C=C1CCC[C@]2(C)C[C@H]3OC(=O)[C@@H](CN4CCOCC4)[C@H]3C[C@@H]12
K562 [1]
  IC50: 5000 nM

## C=C1CCC[C@]2(C)C[C@H]3OC(=O)[C@@H](CN(CC)CC)[C@H]3C[C@@H]12
A549
  IC50: 800 nM
COLO
  IC50: 3500 nM
[2]
  IC50: 1000 nM
NCI-H520
  IC50: 900 nM
NCI-H460
  IC50: 600 nM
K562 [3]
  IC50: 2000 nM
K562 [4]
  Activity: 4.4%
K562 [5]
  G2/M: 10%
K562 [1]
  IC50: 2000 nM
K562 [6]
  S: 52%
K562 [7]
  c.v: 4.3
MCF7
  IC50: 800 nM
P388
  IC50: 300 nM
WiDr
  IC50: 1500 nM
BT-20
  IC50: 1200 nM
K562 [8]
  G1: 39%

## C=C1CCC[C@]2(C)C[C@H]3OC(=O)[C@@H](CN(C)C)[C@H]3C[C@@H]12
K562 [1]
  IC50: 3000 nM

## C=C1CCC[C@]2(C)C[C@H]3OC(=O)[C@@H](CN(CCC)CCC)[C@H]3C[C@@H]12
K562 [1]
  IC50: 5000 nM

## C=C1CCC[C@]2(C)C[C@H]3OC(=O)[C@@H](CNC)[C@H]3C[C@@H]12
K562 [1]
  IC50: 24000 nM

## C=C1CCC[C@]2(C)C[C@H]3OC(=O)[C@@H](CN(C)C(C)C(O)c4ccccc4)[C@H]3C[C@@H]12 (stereo partly specified)
K562 [1]
  IC50: 3000 nM

## C=C1CCC[C@]2(C)C[C@H]3OC(=O)[C@@H](CNCCCN(C)C)[C@H]3C[C@@H]12
K562 [1]
  IC50: 6000 nM

## C[C@H]1CCC[C@]2(C)C[C@H]3OC(=O)[C@@H](CN(C)C)[C@H]3C=C12
K562 [1]
  IC50: 2000 nM

## CCN(CC)C[C@@H]1C(=O)O[C@@H]2C[C@@]3(C)CCC[C@H](C)C3=C[C@H]12
K562 [4]
  Activity: 7.3%
K562 [5]
  G2/M: 10%
K562 [1]
  IC50: 700 nM
K562 [6]
  S: 52%
K562 [7]
  c.v: 7
K562 [8]
  G1: 38%

## C=C1CCC[C@]2(C)C[C@H]3OC(=O)[C@@H](CNCc4ccccc4)[C@H]3C[C@@H]12
K562 [1]
  IC50: 15000 nM

## C[C@H]1CCC[C@]2(C)C[C@H]3OC(=O)[C@@H](CN4CCCCC4)[C@H]3C=C12
K562 [1]
  IC50: 2000 nM

## C=C1C(=O)O[C@@H]2C[C@@]3(C)CCC[C@H](C)C3=C[C@H]12 [HELENINE]
K562 [4]
  Activity: 9.9%
K562 [5]
  G2/M: 17%
K562 [1]
  IC50: 700 nM
K562 [6]
  S: 53%
K562 [7]
  c.v: 3.4
K562 [8]
  growth inhibition (GI): 30%

## C=C1C(=O)O[C@@H]2C[C@@]3(C)CCCC(=C)[C@@H]3C[C@H]12 [ISOALANTOLACTONE]
A549
  IC50: 600 nM
COLO
  IC50: 2100 nM
[2]
  IC50: 1100 nM
NCI-H520
  IC50: 900 nM
NCI-H460
  IC50: 600 nM
K562 [3]
  IC50: 1200 nM
K562 [4]
  Activity: 8.2%
K562 [5]
  G2/M: 12%
K562 [1]
  IC50: 1200 nM
K562 [6]
  S: 50%
K562 [7]
  c.v: 3.2
MCF7
  IC50: 600 nM
P388
  IC50: 400 nM
WiDr
  IC50: 1400 nM
BT-20
  IC50: 1200 nM
K562 [8]
  growth inhibition (GI): 38%
